Consider twelve compounds from patent publication US8168651B2, “Protein kinase modulators” (Cylene Pharmaceuticals, Inc., priority 2008, dated 2012).

For data set [1], the system named is K-562. The data set is described as follows: Cell proliferation modulatory activity, K-562. It is filed as cell-based. Particulars: Homo sapiens, K562; K-562 cells.
A further data set has as its system Jurkat. The data set is described as follows: Cell proliferation modulatory activity, Jurkat. It is filed as cell-based. Particulars: Homo sapiens; Jurkat cells.
A further data set concerns the target recombinant human PIM1 (Homo sapiens (Human), UniProt P11309). Briefly: PIM-1 kinase activity in cell-free in vitro assay. Particulars: cell-free assay; for inhibition at 0.5 µM: 500 nM compound, read-out: PIM-1: % inh 500 nM. It is filed as biochemical.
A further data set deals with MV-4-11. The data set is described as follows: Cell proliferation modulatory activity, MV-4-11. Particulars: Homo sapiens, MV4-11; MV-4-11 cells. Type of data set: cell-based.
In data set [2] the test system is HCT-116 human colorectal carcinoma cells. The data set is described as follows: Cell-proliferation assay using Alamar Blue dye. Type of data set: cell-based. Particulars: Homo sapiens, HCT-116, second HCT-116 column (c8); read-out: HCT-116 (uM) cell proliferation modulatory activity. In general terms: The colour change of resazurin is a common sign of viable cells or microbes.

In data set [3] the test system is leukemic cells from AML patients. Particulars: cited from earlier work.
For a further data set, the system named is PC-3 xenografts. The data set is described as follows: Tumor suppression in PC-3 xenograft animals. Type of data set: in vivo, NCr nu/nu mice. To be noted: oral 150 mg/kg. As to the method: (§1) Animals were handled under laminar-flow hoods.
(§2) Gemzar™ administered at a dose of 80 mg/kg IP Q3D was used as a positive control.

Data set [4] is described as follows: Distribution of compound in plasma and tumors of animals. Type of data set: in vivo, mice. The protocol: The distribution of compound A1 in the plasma and tumors of animals was assessed.
Data set [5] has as its system A549 (human lung cancer cells) xenograft. Briefly: Tumor suppression in A549 xenograft mice. Particulars: oral administration. It is filed as in vivo.
Source text: as §1
The compound was delivered by oral administration for such determinations.

Data set [6] is described as follows: Pharmacokinetics after IV and PO dose in beagle dogs. It is filed as in vivo. To be noted: Beagle dogs. As to the method: (§3) The pharmacokinetics properties of drugs were also investigated in SD rats and beagle dogs following an intravenous (IV) bolus and oral (PO) doses of drug using similar methods. Blood samples were collected at predetermined times and the plasma separated.
(§4) Drug levels were quantified by the LC/MS/MS method described below. Noncompartmental pharmacokinetic analysis was applied for intravenous administration. […] The terminal t1/2 and C0 were calculated using the last three and the first three data points, respectively
(§5) Bioanalysis was performed using a Quattro Micro LC/MS/MS instrument in the MRM detection mode, with an internal standard (IS). Briefly, 15 µL plasma samples were prepared for analysis using protein precipitation with 120 μL of acetonitrile. The supernatants were transferred into a 96 well plate and subjected to LC-MS/MS analysis using a Phenomenex Polar-RP HPLC column. The mobile phases were 10 mM NH4HCO3 in water (Solution-A) and 10 mM NH4HCO3 in methanol (Solution-B). […] Quantitation of the analytes was performed in the batch mode with two bracketing calibration curves according to the bioanalytical sample list.

The next data set concerns MCF-7 xenografts. The data set is described as follows: Tumor suppression in MCF-7 xenograft animals. Type of data set: in vivo, NCr nu/nu mice. Particulars: oral 100 mg/kg. As to the method:
as §1, §2

For the next data set, the system named is caspase-3 cell staining. The data set is described as follows: Caspase-3 staining as biomarker in treated tumors. It is filed as in vivo, mice. To be noted: 60 mg/kg IV. The protocol: Caspase staining also was assessed as a biomarker for compound A1 treatment of tumors.
Data set [7] concerns BX-PC3 (human pancreatic cancer cells) xenograft. Briefly: Tumor suppression in BX-PC3 xenograft mice. To be noted: BX-PC3 xenograft mice, oral administration. Type of data set: in vivo.
Data set [8] can be described thus: Pharmacokinetics after IV and PO dose in SD rats. Type of data set: in vivo. Particulars: Sprague-Dawley, rat, plasma. As to the method: as §3, §4, §5
Data set [9] is described as follows: Pharmacokinetics after IV and PO dose in ICR mice. It is filed as in vivo. To be noted: for half-life: mouse, plasma. As to the method: […] Blood samples were collected at predetermined times and the plasma separated. Plasma was separated from the blood samples collected at 5, 15 and 30 minutes and 1, 2, 4, 8 and 24 hours post-dose.
Drug levels were quantified by the LC/MS/MS method described below. Noncompartmental pharmacokinetic analysis was applied for intravenous administration. A linear trapezoidal rule was used to compute AUC(0-24). The terminal t1/2 and C0 were calculated using the last three and the first three data points, respectively
as §5

Data set [10] has as its system K-562. The data set is described as follows: Cell-proliferation assay using Alamar Blue dye. It is filed as cell-based. To be noted: Homo sapiens, K562.
A further data set deals with LNCaP. The data set is described as follows: Cell-proliferation assay using Alamar Blue dye. It is filed as cell-based. To be noted: Homo sapiens. The protocol: (§6) A representative cell-proliferation assay protocol using Alamar Blue dye (stored at 4° C., use 20 ul per well) is described hereafter.
(§7) 96-Well Plate Setup and Compound Treatment
(§8) • a. Split and trypsinize cells. • b. Count cells using hemocytometer. • c. Plate 4,000-5,000 cells per well in 100 μl of medium and seed into a 96-well plate according to the following plate layout. Add cell culture medium only to wells B10 to B12. Wells B1 to B9 have cells but no compound added.
(§9) • d. Add 100 μl of 2× drug dilution to each well in a concentration shown in the plate layout above. At the same time, add 100 μl of media into the control wells (wells B10 to B12). Total volume is 200 μl/well. • e. Incubate four (4) days at 37° C., 5% CO2 in a humidified incubator. • f. Add 20 μl Alamar Blue reagent to each well. • g. Incubate for four (4) hours at 37° C., 5% CO2 in a humidified incubator. • h. Record fluorescence at an excitation wavelength of 544 nm and emission wavelength of 590 nm using a microplate reader.
(§10) In the assays, cells are cultured with a test compound for approximately four days, the dye then is added to the cells and fluorescence of […] dye is detected after approximately four hours. Different types of cells can be utilized in the assays (e.g., HCT-116 human colorectal carcinoma cells, PC-3 human prostatic cancer cells and MiaPaca human pancreatic carcinoma cells). Anti-proliferative effects of representative compounds are provided hereafter

The subject of the next data set is A549. Briefly: Cell-proliferation assay using Alamar Blue dye. Type of data set: cell-based. Particulars: Homo sapiens. The protocol: as §6, §7, §8, §9, §10
A further data set has as its system MCF-7. The data set is described as follows: Cell-proliferation assay using Alamar Blue dye. Particulars: Homo sapiens, MCF7. Type of data set: cell-based. As to the method: as §6, §7, §8, §9, §10
In the next data set the test system is MDAMB231. Briefly: Cell-proliferation assay using Alamar Blue dye. Type of data set: cell-based. Particulars: Homo sapiens, MDA-MB-231. The protocol: as §6, §7, §8, §9, §10
A further data set addresses Flt3 (Homo sapiens (Human), UniProt P36888). To be noted: cited from earlier work.
A further data set has as its system MiaPaca xenografts. The data set is described as follows: Tumor suppression in MiaPaca xenograft mice. It is filed as in vivo, NCr nu/nu mice. Particulars: IV administration. As to the method: as §1
Tumor volume measurements (FIG. 3A) and body weight (FIG. 3B) were recorded on days 3, 6, 8, 10, 13 and 15.
as §2

The subject of a further data set is MV-4-11 (AML) xenograft. Particulars: MV-4-11 (AML) xenograft model; cited from earlier work.
A further data set relates to MOLM-13 (AML) xenograft. To be noted: MOLM-13 (AML) xenograft model; cited from earlier work.
Setting [11] is: dog, plasma, 0.8 mg/kg, IV 0.80 mg/kg.

Where only a bound is given, the exact number is not on record here.
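Throughout, for HCT-116 (uM) cell proliferation modulatory activity: cells exposed to compound for about 4 days, then Alamar Blue added and dye fluorescence read after about 4 h, compared with medium-only control wells.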

Sequence of recombinant human PIM1 (P11309 whole entry): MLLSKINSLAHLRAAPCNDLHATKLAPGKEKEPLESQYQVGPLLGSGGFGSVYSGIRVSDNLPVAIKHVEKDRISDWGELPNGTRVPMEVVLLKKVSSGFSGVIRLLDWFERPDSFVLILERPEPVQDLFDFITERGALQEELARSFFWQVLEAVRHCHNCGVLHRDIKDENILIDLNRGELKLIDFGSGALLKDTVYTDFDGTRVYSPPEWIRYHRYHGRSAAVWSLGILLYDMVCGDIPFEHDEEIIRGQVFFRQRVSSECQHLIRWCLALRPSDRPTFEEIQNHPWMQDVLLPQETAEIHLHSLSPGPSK
Sequence of Flt3 (P36888 27-993): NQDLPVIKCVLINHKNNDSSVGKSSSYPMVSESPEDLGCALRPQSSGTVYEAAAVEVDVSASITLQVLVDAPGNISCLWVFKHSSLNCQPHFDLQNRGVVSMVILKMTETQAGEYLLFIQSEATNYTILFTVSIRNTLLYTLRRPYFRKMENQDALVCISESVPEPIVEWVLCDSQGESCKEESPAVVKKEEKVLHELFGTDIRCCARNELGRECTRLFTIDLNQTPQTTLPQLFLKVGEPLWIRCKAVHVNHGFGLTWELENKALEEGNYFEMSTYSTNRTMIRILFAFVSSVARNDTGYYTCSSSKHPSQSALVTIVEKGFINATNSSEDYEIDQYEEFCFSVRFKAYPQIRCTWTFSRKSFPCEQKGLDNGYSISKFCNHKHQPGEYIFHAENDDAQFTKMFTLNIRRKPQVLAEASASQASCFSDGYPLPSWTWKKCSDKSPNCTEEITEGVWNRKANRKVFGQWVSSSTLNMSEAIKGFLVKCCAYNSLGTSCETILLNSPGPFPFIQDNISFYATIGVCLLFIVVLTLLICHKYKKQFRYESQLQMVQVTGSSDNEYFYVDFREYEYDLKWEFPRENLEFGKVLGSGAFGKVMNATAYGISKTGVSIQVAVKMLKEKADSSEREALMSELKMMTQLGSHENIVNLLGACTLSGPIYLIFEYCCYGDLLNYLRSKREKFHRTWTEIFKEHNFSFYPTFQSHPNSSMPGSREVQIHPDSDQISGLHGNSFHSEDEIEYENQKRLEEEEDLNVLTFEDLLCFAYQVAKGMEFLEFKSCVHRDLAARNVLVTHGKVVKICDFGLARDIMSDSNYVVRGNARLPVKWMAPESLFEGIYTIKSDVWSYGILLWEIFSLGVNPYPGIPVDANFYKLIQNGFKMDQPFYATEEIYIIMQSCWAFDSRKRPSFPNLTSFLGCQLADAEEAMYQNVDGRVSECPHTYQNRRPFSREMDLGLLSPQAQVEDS

On to `O=C(O)c1ccc2c(c1)nc(Nc1ccccc1OCc1ccccc1)c1ccncc12`, for which the IC50 in the data set with K-562 [1] was greater than 10 µM; in the data set with Jurkat, 29.8 µM; with MV-4-11, greater than 10 µM; in [2] it was greater than 10 µM. The inhibition at 0.5 µM at recombinant human PIM1 turned out to be 27.7%.
For `CN(C)C[C@@H]1CCn2cc(c3ccccc32)C2=C(C(=O)NC2=O)c2cn(c3ccccc23)CCO1` [Ly5333′531], the “cell growth and cell death” value in [3] was “suppressed cell growth and induced cell death”.
`O=C(O)c1ccc2c(c1)nc(Nc1cccc(Cl)c1)c1ccncc12` [Compound A1]: the tumor growth entry (with PC-3 xenografts; in data set [5]; in the data set with MCF-7 xenografts; in data set [7]) was “significantly inhibited tumor growth” each time. The “compound identified in plasma” value in data set [4] (30 mg/kg IV) is “about 6.8 micromolar”; in data set [4] (60 mg/kg IV), roughly 2.2 µM; in data set [4] (200 mg/kg orally), roughly 9.5 µM. Further, the “compound identified in tumors” value in data set [4] (30 mg/kg IV) was “about 42.9 micromolar”; in data set [4] (60 mg/kg IV) it was roughly 7.0 µM; in [4] (200 mg/kg orally), roughly 6.4 µM. Also, in data set [6] (IV 0.80 mg/kg), the “AUC(0-12 h)” value was found to be 349 ng · h · mI^−1. Besides, the “AUC(0-Inf)” value is recorded as 352 ng · h · mI^−1 in [6] (IV 0.80 mg/kg) and 633 ng · h · mI^−1 in data set [6] (IV MC 0.80 mg/kg). Also, the results for the CLs in [6] (IV 0.80 mg/kg) and in data set [9] (IV 5 mg/kg) were 38.3 mL/min/kg and 25 mL/min/kg, respectively. In addition, the Cp0-exp in data set [6] (IV 0.80 mg/kg) came to 1406 ng/mL; in [9] (IV 5 mg/kg), 13201 ng/mL. For the same compound, the Kel stood at 0.5546 h⁻¹ in [6] (IV 0.80 mg/kg), 0.1586 h⁻¹ in [9] (IV 5 mg/kg) and 0.1076 h⁻¹ in data set [9] (PO 25 mg/kg). The peak concentration (Cmax) in [6] (setting [11]) was determined as 1040 ng/mL; in [6] (dog, plasma, PO 3.80 mg/kg) it was 495 ng/mL; in data set [8] (IV 2.50 mg/kg, SD rats) it was 21300 ng/mL. The Vd in [6] (setting [11]) came to 4.1 L/kg; in [8] (IV 2.50 mg/kg, SD rats) it was 2.5 L/kg. Further, the half-life was 1.2 h in data set [6] (setting [11]); 1.2 h in data set [6] (dog, plasma, PO 3.80 mg/kg); 4.5 h in [8] (po, […]); 9.8 h in [8] (IV 2.50 mg/kg, SD rats); 4.4 h in data set [9] (IV 5 mg/kg); 6.4 h in data set [9] (PO 25 mg/kg). The Tmax is 0.5 h in data set [6] (dog, plasma, PO 3.80 mg/kg) and 1 h in data set [8] (po, […]). Moreover, in the data set on caspase-3 cell staining, the “caspase-3 cell staining levels versus untreated control cells” value is given as “four-fold greater”. Further, the “F(0-8 h)” value in [9] (PO 25 mg/kg) was determined as 10.9%. Besides, in data set [9] (PO 25 mg/kg), the “F(0-inf h)” value amounted to 18.7%.
In the case of `O=C(O)c1ccc2c(c1)nc(NCCCc1ccccc1)c1ccncc12` [drawing 1003], the IC50 in the data set with K-562 [10] is 7.17 µM; in the data set with LNCaP it was 10.4 µM; with A549 it was greater than 50 µM; in the data set with MCF-7, greater than 50 µM; in the data set on MDAMB231 it was 7.66 µM.
Turning to `O=C(O)c1ccc2c(c1)nc(NCCc1cccc(F)c1)c1ccncc12` [drawing 1002], the IC50 is 10.3 µM in the data set with LNCaP, 47.2 µM in the data set with A549, greater than 50 µM in the data set on MCF-7 and 5.83 µM in the data set on MDAMB231.
`C[C@]12O[C@H](C[C@]1(O)CO)n1c3ccccc3c3c4c(c5c6ccccc6n2c5c31)CNC4=O` [CEP-701]: the “inhibition of Flt3” value on Flt3 is “potent inhibitor”.
Take `O=C(O)c1ccc2c(c1)nc(Nc1cccc(C(F)(F)F)c1)c1nc(NC3CC3)ncc12` [Compound A3]: in the data set on MiaPaca xenografts, the tumor progression entry is on record as “significantly inhibited tumor progression”.
Take `O=C(O)c1ccc2c(c1)nc(Nc1ccc(OCc3ccccc3)cc1)c1ccncc12`: the IC50 was 14.2 µM in the data set with Jurkat and greater than 10 µM in data set [2]. Also, the inhibition at 0.5 µM at recombinant human PIM1 was determined as 44.3%.
For `O=C(O)c1ccc2c(c1)nc(Nc1ccc3c(c1)OCCO3)c1ccncc12`, the IC50 in the data set with K-562 [1] is greater than 10 µM; in the data set on Jurkat it was 29.6 µM; at recombinant human PIM1, 0.259 µM; in the data set with MV-4-11, greater than 10 µM; in [2], greater than 10 µM. Moreover, the inhibition at 0.5 µM on recombinant human PIM1 is 88.4%.
For the compound `O=C(O)c1ccc2c(c1)nc(NCCc1ccccc1)c1ccncc12` [drawing 988], the IC50 amounted to 8.6 µM in the data set with LNCaP, 47 µM in the data set with A549 and 14.7 µM in the data set with MCF-7.
In the case of `CN1CCC(CNc2ccc3ncc(-c4cccc(OC(F)(F)F)c4)n3n2)CC1` [SGI-1776], the tumor regression entry in the data set on MV-4-11 (AML) xenograft and in the data set with MOLM-13 (AML) xenograft was “significant tumor regression” throughout.
For the compound `O=C(O)c1ccc2c(c1)nc(NCCc1cccc(Cl)c1)c1ccncc12` [drawing 1001], the IC50 with K-562 [10] amounted to 9.18 µM; in the data set on LNCaP it was 13.9 µM; in the data set on A549 it was 32.5 µM; with MCF-7, 47.6 µM; in the data set on MDAMB231, 14.2 µM.

One may read the Cmax as the maximum level reached in the sampled fluid or tissue. The half-life is how long it takes for the measured level to halve. A higher half-life goes with slow loss. Broadly, the Tmax is the time at which the peak concentration occurs.
